Measurements taken from ChEMBL document CHEMBL1147309, “Antitumor agents, 110. Bryophyllin B, a novel potent cytotoxic bufadienolide from Bryophyllum pinnatum” (1989).
Values after ≈ are worked out from the molar mass of the structure shown.

Tests used:
Type in all cases: functional
Conditions in all cases: read-out: ED50 (the source's name)
A549 = test: Cytotoxicity against human A549 cells
HCT-8 = test: Cytotoxicity against human HCT8 cells
L1210 = test: Cytotoxicity against mouse L1210 cells
P388 = test: Cytotoxicity against mouse P388 cells
KB = test: Cytotoxicity against human KB cells

Row | SMILES | EC50 (A549) [µg/mL] | EC50 (HCT-8) [µg/mL] | EC50 (L1210) [µg/mL] | EC50 (P388) [µg/mL] | EC50 (KB) [µg/mL]
1 | CC(=O)O[C@H]1C[C@@H](O)[C@]2(C=O)[C@H]3CC[C@]4(C)[C@@H](c5ccc(=O)oc5)CC[C@]4(O)[C@@H]3CC[C@]2(O)C1 | 0.04 (≈ 0.0843 µM) | 0.01 (≈ 0.0211 µM) | > 0.004 | > 0.004 | < 0.04
2 | C[C@@]12O[C@H]3C[C@@H](O1)[C@]1(C=O)[C@H]4[C@H](O)C[C@]5(C)[C@@H](c6ccc(=O)oc6)CC[C@]5(O)[C@@H]4CC[C@@]1(C3)O2 [BRYOPHYLLIN A] | 0.01 (≈ 0.0212 µM) | 0.03 (≈ 0.0635 µM) | > 0.004 | > 0.004 | 0.014 (≈ 0.0296 µM)
3 | CC(=O)O[C@@H]1C[C@H](O)C[C@@]2(O)CC[C@@H]3[C@@H]4[C@@H](C[C@]5(C)[C@@H](c6ccc(=O)oc6)CC[C@]35O)O[C@H](O)[C@]412 [BRYOPHYLLIN B] |  |  |  |  | < 0.08
